Tests used:
[1] = target: Glucocorticoid Receptor GR (Homo sapiens (Human), UniProt P04150); test: Binding activity to glucocorticoid receptor GR (Polarscreen fluorescence polarization kit); settings: GR full length, 2 h
Description: The binding activity of the compound to GR was determined using the Polarscreen Glucocorticoid Receptor Assay Kit, Red (brand: Thermo, Cat. No: A15898). […] The highest concentration was 100 μM, 8 concentrations in total. […] With the log value of the final concentration of the compound as the X axis and the mP value as the Y axis, data was input into the processing software Graphpad Prism 9, and the EC50 value was calculated by four-parameter fitting

[2] = test system: CHS mouse model; test: Efficacy test in CHS mouse model (FITC sensitization, right ear thickness); type: in vivo, C57BL/6N mice; settings: 3 μg/mouse
Description: Construction of CHS mouse model: 6- to 8-week-old female C57BL/6N mice (Beijing Vital River Laboratory Animal Technology Co., Ltd.) were selected, and all mice were shaved off abdominal hair using a small animal hair clipper. 400 μL of the sensitizer was pipetted with a micropipette and applied evenly to the abdomen of the mice for epidermal sensitization. After application, the mice were held for 3-5 s and the solvent was allowed to evaporate from the skin as clean as possible. The specific preparation method for the sensitizer was: 0.5 g of FITC (fluorescein isothiocyanate; sigma-Aldrich) powder was weighed and fully dissolved in a solvent of 50 mL of acetone (SinoPharm reagent) and 50 mL of DBP (dibutyl phthalate; sigma-Aldrich) in equal proportion to give the sensitizer with the FITC content of 0.5%. On the 6th day after sensitization, the thickness of the right ear of the mice was measured with a dial thickness gauge as a baseline value, then a freshly prepared sensitizer was pipetted with a micropipette and applied evenly inside and outside of the right ear of the mice respectively for epidermal stimulation, and 10 μL of the sensitizer was applied on each side. 24 h after stimulation, the thickness of the right ear of the mice was measured again with a dial thickness gauge to obtain the thickness change of the right ear of the mice, A thickness of right ear=(thickness of right ear 24 h after stimulation)−(baseline value of thickness of right ear).
Therapeutic regimen for CHS model mouse: mice were divided into a blank group, a negative control group, a positive control group, and an experimental group. […] The drug was administered by one-time intraperitoneal injection 1 h before the right ear epidermal stimulation.

[3] = target: CYP2D6 (Homo sapiens (Human), UniProt P10635); test: Inhibition of CYP2D6 enzymatic activity in human liver microsomes; type: in vitro ADME; settings: human liver microsome, substrate dextromethorphan, 20 min
Description: The inhibition of CYP2C9 and CYP2D6 activity by the compound of the present invention was determined using the following method.
• 1. Human liver microsome (Corning 452117) • 2. NADPH (Solarbio 705Y021) • 3. Positive substrates diclofenac (Sigma SLBV3438) and dextromethorphan (TRC 3-EDO-175-1) • 4. Positive inhibitors sulfaphenazole (D. Ehrenstorfer GmbH 109012) and quinidine (TCI WEODL-RE) • 5. AB Sciex Triple Quad 5500 liquid chromatography-mass spectrometry system
• 1. Preparation of 100 mM phosphate-buffered saline (PBS): 7.098 g Na2HPO4 was weighed. 500 mL pure water was added. The mixture was dissolved by sonication to give solution A. 3.400 g KH2PO4 was weighed. 250 mL pure water was added. The mixture was dissolved by sonication to give solution B. The solution A was placed in a stirrer, and the solution B was slowly added until the pH reached 7.4, so that the 100 mM PBS buffer was prepared. • 2. A 10 mM NADPH solution was prepared with a 100 mM PBS buffer. A 10 mM stock solution of the compound of the present invention was diluted with DMSO to give a compound working solution at a concentration of 200×(6000, 2000, 600, 200, 60, 20, and 0 μM). […]
The reduction of metabolite production in the treatment groups versus the control group was compared by the peak area ratios of the sample to the internal standard, and the IC50 value was calculated using Excel XLfit 5.3.1.3.

Sequence of Glucocorticoid Receptor GR (P04150 whole entry): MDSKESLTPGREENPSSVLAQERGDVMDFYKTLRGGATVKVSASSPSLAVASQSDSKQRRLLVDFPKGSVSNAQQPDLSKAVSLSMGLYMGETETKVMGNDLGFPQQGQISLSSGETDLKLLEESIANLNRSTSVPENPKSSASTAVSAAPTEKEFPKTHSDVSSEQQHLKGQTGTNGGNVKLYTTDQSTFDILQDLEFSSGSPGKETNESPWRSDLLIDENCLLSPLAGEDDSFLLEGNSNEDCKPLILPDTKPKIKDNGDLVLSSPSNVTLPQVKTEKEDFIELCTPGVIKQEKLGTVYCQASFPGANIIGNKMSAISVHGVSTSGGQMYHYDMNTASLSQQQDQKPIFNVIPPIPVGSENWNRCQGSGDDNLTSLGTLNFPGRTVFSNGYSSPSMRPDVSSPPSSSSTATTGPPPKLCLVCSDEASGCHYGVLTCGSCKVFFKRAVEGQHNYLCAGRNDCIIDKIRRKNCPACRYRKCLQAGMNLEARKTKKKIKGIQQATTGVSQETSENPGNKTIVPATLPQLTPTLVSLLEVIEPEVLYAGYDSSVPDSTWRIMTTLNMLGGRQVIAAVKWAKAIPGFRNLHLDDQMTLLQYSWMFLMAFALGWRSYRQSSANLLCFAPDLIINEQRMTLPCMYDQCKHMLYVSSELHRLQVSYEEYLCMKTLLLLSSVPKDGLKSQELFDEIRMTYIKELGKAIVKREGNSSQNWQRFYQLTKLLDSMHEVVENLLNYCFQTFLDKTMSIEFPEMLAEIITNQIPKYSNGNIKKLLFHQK
Sequence of CYP2D6 (P10635 whole entry): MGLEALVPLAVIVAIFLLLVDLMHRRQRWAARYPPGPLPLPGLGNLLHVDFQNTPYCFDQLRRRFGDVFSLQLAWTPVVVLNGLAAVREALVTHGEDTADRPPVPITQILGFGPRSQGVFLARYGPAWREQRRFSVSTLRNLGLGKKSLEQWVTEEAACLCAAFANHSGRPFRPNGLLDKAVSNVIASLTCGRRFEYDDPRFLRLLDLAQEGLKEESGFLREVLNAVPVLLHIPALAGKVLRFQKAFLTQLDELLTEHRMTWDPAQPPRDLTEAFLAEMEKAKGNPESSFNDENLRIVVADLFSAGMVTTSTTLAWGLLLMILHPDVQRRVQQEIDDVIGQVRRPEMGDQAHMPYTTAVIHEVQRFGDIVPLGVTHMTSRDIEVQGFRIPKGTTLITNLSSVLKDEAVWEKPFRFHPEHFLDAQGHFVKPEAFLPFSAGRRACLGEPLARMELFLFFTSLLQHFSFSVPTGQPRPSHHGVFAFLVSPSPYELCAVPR

In the case of C[C@]12C=CC(=O)C=C1CC[C@@H]1[C@@H]2[C@@H](O)C[C@@]2(C)[C@H]1C[C@H]1O[C@@H](c3ccc(Cc4cc(N)c5c(c4)CCO5)cc3)O[C@]12C(=O)CO [Compound 009, (6aR,6bS,7S,8aS,8bS,10R,11aR,12aS,12bS)-10-(4-((7-amino-2,3-dihydrobenzofuran-5-yl)methyl)phenyl)-7-hydroxy-8b-(2-hydroxyacetyl)-6a,8a-dimethyl-6a,6b,7,8,8a,8b,11a,12,12a,12b-decahydro-1H-naphtho[2′,1′:4,5]indeno[1,2-d][1,3]dioxolan-4(2H)-one], the EC50 [1] is reported as 20.2 nM, the “thickness of the right ear in CHS mice compared to the negative control group” value ([2]; one-time intraperitoneal injection 1 h before right ear stimulation, measured 24 h after stimulation) is reported as “significant decrease” and the “efficacy compared with positive reference compound a at the same dose” value ([2]; one-time intraperitoneal injection, CHS mice, right ear thickness) is reported as “superior in efficacy to the positive reference compound a”. It also gave an IC50 [3] of over 50000 nM.
